Data reported in the RepoRT retention time repository.

Experiment: Agilent ZORBAX 300 SB-C18, 150 × 1 mm, 3.5 µm; A: water + 0.01% heptafluorobutyric acid; B: acetonitrile + 0.01% heptafluorobutyric acid; gradient (min/%B) 0/0 100/90
Details: stereoisomer not certain

Compound	LC retention time
CNC(C)c1ccccc1 (stereo not given)	7.92 min
O=C(C(Cc1ccccc1)n1cccc1)N1CCCC1 (stereo not given)	13.8 min
Cc1ccc2c(c1)C1CN(C)CCC1N2C(=O)CCCCCN1C(=O)c2ccccc2C1=O (stereo not given)	10.6 min
O=c1[nH]c2ccccc2[nH]c1=O	6.56 min
NC(=O)CC(NC(N)=O)C(=O)O (stereo not given)	1.47 min
O=C(O)c1c[nH]c(=O)[nH]1	1.64 min
O=c1c2ccccc2nnn1Cc1ccncc1	8.31 min
COc1ccc(C(=O)C=Cc2ccccc2)cc1	15.7 min
c1ccc(-c2cnc(-c3ccncc3)o2)cc1	11.9 min
Cc1ccc2c(c1)C1CN(C)CCC1N2C(=S)NC1CCCCC1 (stereo not given)	12.2 min
C#CC1(NC(C)=O)CCCCC1	9.46 min
c1ccc(Cc2nc3ccccc3[nH]2)cc1	9.23 min
O=C(Nc1cccnc1)c1ccc(=O)[nH]n1	6.84 min
O=C(O)CCN1CCCc2ccccc21	11.3 min
CN1CCCCC1=O	7.29 min
c1ccc(CN(c2ccccn2)c2ccccn2)cc1	11 min
CC(C)n1c2ccccc2c2ccccc21	18.2 min
CC(=O)Oc1ccc2cccc(N(C(C)=O)C(C)=O)c2c1	12 min
NCCc1cccs1	7.47 min
S=C(NC1CCCCC1)NC1CCCCC1	14.9 min

Compound	LC retention time
Cc1cccc(C)c1NC1=NCCCS1	9.58 min
CCOC(=O)C=CC(=O)NNC(=O)CCC(=O)Nc1ccc(C)cc1C	10.1 min
c1nc2cc3ncc[nH]c3cc2n1	7.13 min
CC1CNCCN1 (stereo not given)	6.48 min
CC(C)(C)C1=CC(=O)CN(C(C)(C)C)C1	8.19 min
Cc1nc(N)cc(=O)[nH]1	2.75 min
Cc1cc(C)c2c(=O)n(CC(=O)NC(C)CCc3ccccc3)c(=O)n(C)c2n1 (stereo not given)	14.9 min
Cc1c(N)cccc1N	6.51 min
COC(=O)C1C(O)CCC2CN3CCc4c([nH]c5ccccc45)C3CC21 (stereo not given)	9.64 min
Nc1ccc(-c2cccs2)cc1	10.5 min
CC(Nc1ccc2ccccc2c1)C(=O)NN=Cc1c2ccccc2cc2ccccc12 (stereo not given)	17.5 min
O=C1NC(=O)C(c2ccccc2)(c2ccccc2)N1	11 min
CCNC(=O)C(=O)NCCc1c[nH]c2ccccc12	10.8 min
COc1ccc(N2CC(C(=O)Nc3c(C)cc(C)cc3C)CC2=O)cc1 (stereo not given)	12.5 min
CC[N+](C)(CC)CC	6.48 min
Cc1ccc(C(=O)NC(C)c2ccc(O)cc2)cc1 (stereo not given)	11.1 min
CCN1CC(CCN2CCOCC2)C(c2ccccc2)(c2ccccc2)C1=O (stereo not given)	9.72 min
NCCCn1ccnc1	6.66 min
O=C1NN=C(c2ccccc2)CC1c1c[nH]c2ccccc12 (stereo not given)	12.3 min
c1ccc(-c2cc(-c3ccccc3)n(-c3ccccc3)n2)cc1	19 min

Further lines, results first:

LC retention time	Compound
1.33 min	O=C(O)c1cc(=O)[nH]c(=O)[nH]1
11.6 min	CC(=O)c1[nH]c(C)c(C(=O)c2ccccc2)c1C
11.8 min	O=C1OCc2cc(-n3cccc3)ccc21
6.06 min	Cn1c2c(c(=O)n(C)c1=O)C(CC(=O)O)C(=O)N2 (stereo not given)
3.12 min	O=C(O)c1cccc(C(=O)O)n1
10.2 min	CCN(CC)c1nc(-c2ccncc2)nc2ccccc12
10.4 min	CC(=O)NCCOc1ccc(C)cc1
6.92 min	CNCCc1ccccn1
5.78 min	O=S(=O)(O)CCNC1CCCCC1
7.51 min	Cc1cc(C)ncn1
15.9 min	O=C(OCC(c1ccccc1)c1ccccc1)c1cccnc1
12 min	C1CCC(OCCNCCOC2CCCCC2)CC1
10.4 min	CCc1ccc(N2CC(C(=O)Nc3ccc(N(C)C)cc3)CC2=O)cc1 (stereo not given)
9.53 min	Nc1cccc(Nc2ccccc2)c1
12.1 min	O=C(CC1NC(=O)N(C2CCCCC2)C1=O)NCCc1c[nH]c2ccccc12 (stereo not given)
5.36 min	Cn1c(=O)c2cc(S(=O)(=O)O)ccc2n(C)c1=O
6.18 min	Nc1cccnc1N
16.8 min	CC(C)(C)c1ccc(-c2nnnn2-c2ccccc2)cc1
10.7 min	Cc1cc(N)c2ccccc2[n+]1CCCCCCCCCC[n+]1c(C)cc(N)c2ccccc21
10.3 min	CNC(=S)NNC(=O)Cc1cccc2ccccc12
15.7 min	COc1cc2ccccc2cc1CNc1ccccc1
10.8 min	Cc1ccccc1CN1CCN(Cc2c[nH]c3ccccc23)CC1
13.7 min	CC(C)(C)c1ccc(C(CC(=O)O)NC(=O)c2ccccc2)cc1 (stereo not given)
13.1 min	c1ccc(-c2ccc3ccccc3n2)cc1
7.72 min	OCCNCc1ccccc1
11.3 min	c1ccc(-c2ccc3ccccc3n2)nc1
7.26 min	Cn1cnc2ccccc21
12.3 min	CCCCCCCCCC[N+](C)(C)C

LC retention time	Compound
12.6 min	CCCCN1CNC(=S)N(c2ccccc2C)C1
10.9 min	COC(=O)c1c[nH]c2ccccc12
15.8 min	CCN(CC)c1ccc(C(=O)NC(c2ccccc2)c2ccccc2)cc1
9.02 min	CC(C)(C)Nc1ncnc2ccccc12
10.8 min	CCCCOc1ccccc1N
9.28 min	CCN(CC)CC(=O)Nc1c(C)cc(C)cc1C
6.82 min	CC(=O)Nc1ccccc1N
12.4 min	O=C(CCc1ccccc1)NNC(=S)NCc1ccccc1
12.6 min	COc1ccc(N(C)C(=O)c2cccc(C(=O)N(C)c3ccc(OC)cc3)c2)cc1
8.94 min	Nc1cc(=O)[nH]c(=S)n1C1CCCC1
9.39 min	O=C1C=C(O)C(=O)C1c1ccccc1 (stereo not given)
8.76 min	C=CCC1(CC=C)CCCCN1
6.51 min	CNCCNC
6.88 min	NCC1CCCCN1 (stereo not given)
6.81 min	NCCCCCC(=O)O
15.2 min	Cc1ccc(NC(=O)Cn2c(=O)c3c(C)cc(C)nc3n(-c3ccccc3)c2=O)c(C)c1
19.4 min	c1ccc(-c2cnc(-c3cccc4ccccc34)o2)cc1
5.93 min	Nc1ccc(C(=O)O)cc1N
7.1 min	CCCCNCC
9.09 min	Cc1cccc(C=NNC(=O)C[n+]2ccccc2)c1
9.42 min	CN(C)c1ccc(C(O)c2ccc(N(C)C)cc2)cc1
14.3 min	O=C(NCCCCc1ccccc1)C(=O)NCc1ccco1
7.31 min	CC(C)CNCCN1CCOCC1
10.1 min	CC(C)CC(=O)Nc1cccc(C(=O)O)c1
17.1 min	Cc1cccc(-c2nnc(-c3ccccc3C)o2)c1
7.98 min	C=CCN(CC=C)CC=C
11.8 min	Cc1cccc(Oc2cc(C)nc3ccc(C)cc23)c1
